Results published in article PMC9721423, “Novel benzo chromene derivatives: design, synthesis, molecular docking, cell cycle arrest, and apoptosis induction in human acute myeloid leukemia HL-60 cells” (Journal of Enzyme Inhibition and Medicinal Chemistry, 2022).
Read-outs that look alike come from different tables or passages of the source.

Key:
Test in all cases: cells
Set-up in all cases: species or system NCI-60 human tumour cell lines; NCI-60 five-dose growth inhibition screen, sulforhodamine B protein stain
[1] = tested on: SK-MEL-28; settings: Homo sapiens, SK-MEL-28, 48 h
Summary of the method: (§1)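 NCI60 protocol: compounds (DMSO:glycerol stocks) tested at a single concentration of 10^−5 M for 48 h, growth read by sulforhodamine B protein staining as percent growth. For selected compounds, dose–response curves gave GI50, TGI and LC50; selectivity taken as full-panel MG-MID divided by subpanel MG-MID.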

[2] = tested on: UACC-257; settings: Homo sapiens, UACC-257, 48 h; read-out: GI50 5a
Summary of the method: as §1

[3] = tested on: TK-10; settings: Homo sapiens, TK-10, 48 h; read-out: GI50 5a
Summary of the method: as §1

[4] = tested on: OVCAR-4; settings: Homo sapiens, OVCAR-4, 48 h; read-out: GI50 5a
Summary of the method: as §1

[5] = tested on: SNB-19; settings: Homo sapiens, SNB-19, 48 h
Summary of the method: as §1

[6] = tested on: SF-295; settings: Homo sapiens, SF-295, 48 h
Summary of the method: as §1

[7] = tested on: NCI-H522; settings: Homo sapiens, NCI-H522, 48 h
Summary of the method: as §1

[8] = tested on: UO-31; settings: Homo sapiens, UO-31, 48 h; read-out: GI50 5a
Summary of the method: as §1

[9] = tested on: PC-3; settings: Homo sapiens, PC-3, 48 h
Summary of the method: as §1

SMILES	GI50 ([1]; read-out: GI50 5a)	GI50 [2]	GI50 [3]	GI50 [4]	GI50 ([5]; read-out: GI50 5a)	GI50 ([6]; read-out: GI50 5a)	GI50 ([7]; read-out: GI50 5a)	GI50 [8]	GI50 ([9]; read-out: GI50 5a)	GI50 ([1]; read-out: GI50 6a)	GI50 ([5]; read-out: GI50 6a)	GI50 ([6]; read-out: GI50 6a)	GI50 ([7]; read-out: GI50 6a)	GI50 ([9]; read-out: GI50 6a)
N=C(NO)C1=C(N)Oc2c(ccc3ccccc23)C1c1ccccc1 (centres unmarked) [5a, 2-Amino-4-phenyl-N-hydroxy-4H-benzo[h]chromene-3-carboxamidine]	11800 nM	18100 nM	16800 nM	760 nM	490 nM	300 nM	60 nM	440 nM	230 nM	–	–	–	–	–
CC(=O)NC1=C(C#N)C(c2ccccc2)c2ccc3ccccc3c2O1 (centres unmarked) [6a, N-(3-Cyano-4-phenyl-4H-benzo[h]chromen-2-yl)acetamide]	–	–	–	–	–	–	–	–	–	860 nM	780 nM	330 nM	220 nM	460 nM
